Reference: publication PMC4980245 (Environmental and molecular mutagenesis, 2016)

What was measured:
[1] = Precipitation/solubility limit of the top test concentration; conditions: for top non-precipitating conc.: precipitation in 100× stock solution or upon addition to culture medium
HepG2 cells = conditions: cited from earlier work
Phospho-Histone H3 = test: MultiFlow DNA Damage Kit flow cytometry, phospho-histone H3; format: cell-based; conditions: TK6 cells with rat liver S9; effect particularly evident at 24 hrs for PhIP
TK6 cells [2] = test: Cytotoxicity by relative nuclei counts; format: cell-based; conditions: TK6 cells with rat liver S9
γH2AX = test: MultiFlow DNA Damage Kit flow cytometry, γH2AX in TK6 cells with rat liver S9; format: cell-based; conditions: 4 hr exposure with 2% rat liver S9
p53 = format: cell-based; conditions: 24 hr time point; TK6 cells, 4 hr exposure with 2% rat liver S9
TK6 cells [3] = test: MultiFlow flow cytometry, polyploidy; format: cell-based; conditions: TK6 cells with rat liver S9
male rat kidney = conditions: due to α2μ-globulin nephropathy; ref Kirkland et al., 2015; cited from earlier work

Q: Which top non-precipitating conc. [1] does the source give for `c1ccc2c(c1)cc1ccc3cccc4ccc2c1c34` [Benzo[a]pyrene] here?
A: 250 µM

Q: For Tunicamycin, which “top conc. due to solubility” value [1] is on record?
A: 500 µM

Q: Which “induction of MN in HepG2 cells” value (HepG2 cells) does the source give for `Cc1cc2ncccc2c2nc(N)n(C)c12` [3,4-Dimethylimidazo[4,5-f]quinolin-2-amine] here?
A: weak inducer

Q: For `CN(C)P(=O)(N(C)C)N(C)C` [Hexamethylphosphoramide], which “proportion of mitotic (p-H3 positive) cells” value (Phospho-Histone H3) is on record?
A: no evidence of cytotoxicity

Q: What about the “cytotoxicity (reductions to RNC)” value (TK6 cells [2]) of the same compound?
A: no evidence of cytotoxicity

Q: Which top non-precipitating conc. [1] does the source give for `CC(=O)Nc1ccc2c(c1)Cc1ccccc1-2` [2-Acetylaminofluorene] here?
A: 250 µM

Q: With `CCN(CC)N=O` [N-Nitrosodiethylamine (DEN), N-Nitrosodiethylamine] as the compound, how does the “proportion of mitotic (p-H3 positive) cells” value (Phospho-Histone H3) read?
A: no evidence of cytotoxicity

Q: What about the “cytotoxicity (reductions to RNC)” value (TK6 cells [2]) of the same compound?
A: no evidence of cytotoxicity

Q: With `Nc1ccc2cc3ccccc3cc2c1` [2-Aminoanthracene] as the compound, how does the top non-precipitating conc. [1] read?
A: 500 µM

Q: Which results are given for `O=[N+]([O-])c1ccc2c(c1)Cc1ccccc1-2` [2-Nitrofluorene]?
A: γH2AX-associated fluorescence response (γH2AX; 4 hr time point): robust responses; γH2AX-associated fluorescence response (γH2AX; 24 hr time point): considerably reduced

Q: For `Cn1c(N)nc2ncc(-c3ccccc3)cc21` [2-amino-1-methyl-6-phenylimidazo [4,5-b]pyridine], which p53 response (p53) is on record?
A: higher p53 responses at 24 hr relative to the 4 hr time point

Q: And the top non-precipitating conc. [1]?
A: 250 µM

Q: What about the “proportion of mitotic (p-H3 positive) cells” value (Phospho-Histone H3) of the same compound?
A: concentration-dependent reductions

Q: And the γH2AX-associated fluorescence response (γH2AX; 4 hr time point)?
A: concentration-related increases

Q: And the γH2AX-associated fluorescence response (γH2AX; 24 hr time point)?
A: concentration-related increases

Q: And the polyploid cells (TK6 cells [3])?
A: not induced

Q: With `C=C(C)[C@H]1CC=C(C)CC1` [D-Limonene] as the compound, how does the tumor finding (male rat kidney) read?
A: male rat kidney tumors
